Data: patent US7348440B2, “Mitotic kinesin inhibitors” (Merck & Co., Inc., priority 2002, dated 2008)
Read-outs that look alike come from different tables or passages of the source.

Target: T1, human KSP motor domain (KSP(367H)) (Homo sapiens, UniProt P52732)
T1 construct: were used to amplify the motor domain and the neck linker region; made in house; host or cells: E. coli BL21 (DE3), pRSETa vector
T1 sequence (P52732 18-359 limits assumed): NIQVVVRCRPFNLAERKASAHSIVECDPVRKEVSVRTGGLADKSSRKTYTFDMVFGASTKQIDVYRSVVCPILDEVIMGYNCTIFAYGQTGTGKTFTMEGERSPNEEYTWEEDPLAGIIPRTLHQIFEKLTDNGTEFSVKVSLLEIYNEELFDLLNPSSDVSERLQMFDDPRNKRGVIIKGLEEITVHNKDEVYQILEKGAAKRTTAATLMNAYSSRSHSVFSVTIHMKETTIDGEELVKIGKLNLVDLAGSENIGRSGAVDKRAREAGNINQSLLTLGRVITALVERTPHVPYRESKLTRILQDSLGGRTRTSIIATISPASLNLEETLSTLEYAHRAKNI
Experiment: Kinesin ATPase In Vitro Assay
Assay type: biochemical
Experimental: I. Kinesin ATPase In Vitro Assay
The N-terminal primer 5′-[…] (SEQ.ID.NO.: 1) and the C-terminal primer 5′-[…] […] (SEQ.ID.NO.: 2) were used to amplify the motor domain and the neck linker region. The PCR products were digested with AseI and XhoI, ligated into the NdeI/XhoI digestion product of pRSETa (Invitrogen) and transformed into E. coli BL21 (DE3).
Cells were grown at 37° C. to an OD600 of 0.5. After cooling the culture to room temperature expression of KSP was induced with 100 μM IPTG and incubation was continued overnight. Cells were pelleted by centrifugation and washed once with ice-cold PBS. Pellets were flash-frozen and stored −80° C.
Cell pellets were thawed on ice and resuspended in lysis buffer (50 mM K-HEPES, pH 8.0, 250 mM KCl, 0.1% Tween, 10 mM imidazole, 0.5 mM Mg-ATP, 1 mM PMSF, 2 mM benzimidine, 1× complete protease inhibitor cocktail (Roche)). Cell suspensions were incubated with 1 mg/ml lysozyme and 5 mM β-mercaptoethanol on ice for 10 minutes, followed by sonication (3×30 sec). All subsequent procedures were performed at 4° C. Lysates were centrifuged at 40,000×g for 40 minutes. Supernatants were diluted and loaded onto an SP Sepharose column (Pharmacia, 5 ml cartridge) in buffer A (50 mM K-HEPES, pH 6.8, 1 mM MgCl2, 1 mM EGTA, 10 μM Mg-ATP, 1 mM DTT) and eluted with a 0 to 750 mM KCl gradient in buffer A. Fractions containing KSP were pooled and incubated with Ni-NTA resin (Qiagen) for one hour. The resin was washed three times with buffer B (Lysis buffer minus PMSF and protease inhibitor cocktail), followed by three 15-minute incubations and washes with buffer B. Finally, the resin was incubated and washed for 15 minutes three times with buffer C (same as buffer B except for pH 6.0) and poured into a column. KSP was eluted with elution buffer (identical to buffer B except for 150 mM KCl and 250 mM imidazole). KSP-containing fractions were pooled, made 10% in sucrose, and stored at −80° C.
Microtubules are prepared from tubulin isolated from bovine brain. Purified tubulin (>97% MAP-free) at 1 mg/ml is polymerized at 37° C. in the presence of 10 μM paclitaxel, 1 mM DTT, 1 mM GTP in BRB80 buffer (80 mM K-PIPES, 1 mM EGTA, 1 mM MgCl2 at pH 6.8). The resulting microtubules are separated from non-polymerized tubulin by ultracentrifugation and removal of the supernatant. The pellet, containing the microtubules, is gently resuspended in 10 μM paclitaxel, 1 mM DTT, 50 μg/ml ampicillin, and 5 μg/ml chloramphenicol in BRB80.
The kinesin motor domain is incubated with microtubules, 1 mM ATP (1:1 MgCl2: Na-ATP), and compound at 23° C. in buffer containing 80 mM K-HEPES (pH 7.0), 1 mM EGTA, 1 mM DTT, 1 mM MgCl2, and 50 mM KCl. The reaction is terminated by a 2-10 fold dilution with a final buffer composition of 80 mM HEPES and 50 mM EDTA (or, alternately, with a 1:1 addition of reaction volume to stop buffer(1.8M KCl and 50 mM EDTA)). Free phosphate from the ATP hydrolysis reaction is measured via a quinaldine red/ammonium molybdate assay by adding a 1.5 times volume of quench C (e.g., to a mixture of 40 μl reaction volume+40 μl stop buffer is then added 120 μl quench C). […] Quench C is a 2:1 ratio of quench A:quench B The reaction is incubated for 5-10 minutes at 23° C., and the absorbance of the phospho-molybdate complex is measured at 540 nm.

[1] = kinesin motor domain incubated with microtubules, 1 mM ATP and compound at 23° C., free phosphate by quinaldine red/ammonium molybdate, absorbance 540 nm, read-out: IC50

CN(C)C(=O)N1CC(c2cc(C(F)(F)F)ccc2F)C=C1c1ccccc1 (stereo not shown) [3-2, 3-[2-fluoro-5-(trifluoromethyl)phenyl]-N,N-dimethyl-5-phenyl-2,3-dihydro-1H-pyrrole-1-carboxamide]
IC50 [1]: ≤ 50 µM

CN(CC1CCNCC1)C(=O)N1CC(c2cc(F)ccc2F)=C[C@H]1c1ccccc1 [18a-6, (2S)-4-(2,5-Difluorophenyl)-N-methyl-2-phenyl-N-(piperidin-4-ylmethyl)-2,5-dihydro-1H-pyrrole-1-carboxamide]
IC50 [1]: ≤ 50 µM

[C-]#[N+]c1ccc(F)c(C2=CC(c3ccccc3)N(C(=O)N(C)C)C2)c1 (stereo not shown) [13-1, 4-(2-fluoro-5-isocyanophenyl)-N,N-dimethyl-2-phenyl-2,5-dihydro-1H-pyrrole-1-carboxamide]
IC50 [1]: ≤ 50 µM

CC(C)(N)C(=O)N1CC(c2cc(F)ccc2F)=CC1c1ccccc1 (stereo not shown) [12-1, 1-[4-(2,5-difluorophenyl)-2-phenyl-2,5-dihydro-1H-pyrrol-1-yl]-2-methyl-1-oxopropan-2-amine]
IC50 [1]: ≤ 50 µM

CN(C(=O)N1CC(c2cc(Cl)ccc2F)=C[C@H]1c1ccccc1)[C@@H]1CCNC1 [18b-8, (2S)-4-(5-Chloro-2-fluorophenyl)-N-methyl-2-phenyl-N-[(3R)-pyrrolidin-3-yl]-2,5-dihydro-1H-pyrrole-1-carboxamide]
IC50 [1]: ≤ 50 µM

CN(C)CCS(=O)(=O)N1CC(c2cc(F)ccc2F)=CC1c1ccccc1 (stereo not shown) [8-2, 2-{[4-(2,5-difluorophenyl)-2-phenyl-2,5-dihydro-1H-pyrrol-1-yl]sulfonyl}-N,N-dimethylethanamine]
IC50 [1]: ≤ 50 µM

CCS(=O)(=O)C(C)CN1CC(c2cc(F)ccc2F)=C[C@H]1c1ccccc1 (single isomer, unassigned) [38-1]
IC50 [1]: ≤ 50 µM

CC(C)(O)C(=O)N1CC(c2cc(F)ccc2F)=CC1c1ccccc1 (stereo not shown) [11-1, 1-[4-(2,5-difluorophenyl)-2-phenyl-2,5-dihydro-1H-pyrrol-1-yl]-2-methyl-1-oxopropan-2-ol]
IC50 [1]: ≤ 50 µM

CC(=O)N1CC(c2cc(F)ccc2F)=CC1c1ccccc1 (stereo not shown) [9-1, 1-acetyl-4-(2,5-difluorophenyl)-2-phenyl-2,5-dihydro-1H-pyrrole]
IC50 [1]: ≤ 50 µM

CN(C(=O)N1CC(c2cc(F)ccc2F)=C[C@H]1c1ccccc1)C1CCNCC1 [18-4, (2S)-4-(2,5-Difluorophenyl)-N-methyl-2-phenyl-N-piperidin-4-yl-2,5-dihydro-1H-pyrrole-1-carboxamide]
IC50: ≤ 50 µM

CC(C)(C)OC(=O)N1CC(OS(=O)(=O)C(F)(F)F)=C[C@H]1c1ccccc1 [compound 54, (2S)-tert-butyl 2-phenyl-4-{[(trifluoromethyl)sulfonyl]oxy}-2,5-dihydro-1H-pyrrole-1-carboxylate]
IC50 [1]: ≤ 50 µM

NCCS(=O)(=O)N1CC(c2cc(F)ccc2F)=CC1c1ccccc1 (stereo not shown) [7-2, 2-{[4-(2,5-difluorophenyl)-2-phenyl-2,5-dihydro-1H-pyrrol-1-yl]sulfonyl}ethanamine]
IC50 [1]: ≤ 50 µM

CN(C)C(=O)N1CC(c2cc(F)ccc2Cl)=CC1c1ccccc1 (stereo not shown) [1-6, 4-(2-chloro-5-fluorophenyl)-N,N-dimethyl-2-phenyl-2,5-dihydro-1H-pyrrole-1-carboxamide]
IC50 [1]: ≤ 50 µM
